Test results from patent publication US10022356B2, “Compounds for treatment of cancer” (UNIVERSITY OF TENNESSEE RESEARCH FOUNDATION, priority 2013, dated 2018).
≈ marks a conversion by molar mass, not a printed value. Read-outs that look alike come from different tables or passages of the source.

Columns and labels:
[1] = test system: A375; assay: In vitro combination assay (combination index, Chou-Talalay, MTS) on A375; format: cell-based, human; conditions: +Vemurafenib; A375 cell line (Tables 3, 4)
Description: (§2) Cell proliferation viability was investigated using MTS or SRB assay as described previously. An in vitro study of the combination of vemurafenib and the tubulin inhibitors was designed and conducted using CalcuSyn software (Biosoft, Ferguson, Mo.) with five duplicates of each set of treatment. Drug concentrations were selected based on the IC50 value of each drug tested from a pilot study.

[2] = test system: PPC-1; assay: SRB cytotoxicity assay, PPC-1; format: cell-based, human; conditions: RABI, Tables 10A/10B; read-out: PPC1 (nM), inhibitory effects
[3] = test system: PC-3; assay: SRB cytotoxicity assay, PC-3; conditions: read-out: PC3 (nM), inhibitory effects; RABI, Tables 10A/10B
[4] = test system: LNCaP; assay: SRB cytotoxicity assay, LNCaP; format: cell-based, human; conditions: Reversed aryl benzoyl imidazole (RABI), Tables 10A/10B; read-out: LNCaP (nM), inhibitory effects
[5] = test system: three melanoma cell lines and four human prostate cancer cell lines; assay: Antiproliferative activity quoted in the SAR text (average of all seven cell lines); format: cell-based
[6] = test system: Du 145; assay: SRB cytotoxicity assay, Du 145; format: cell-based, human; conditions: RABI, Tables 10A/10B; read-out: DU145 (nM), inhibitory effects
[7] = test system: B16-F1 melanoma cells; assay: B16-F1 melanoma colony formation assay in soft agar; format: cell-based, mouse; conditions: 14 days; tested 20, 100, 500 nM
Description: B16-F1 melanoma cells were plated at a colony-forming density (2000 cells per well on six-well plates) on top of 0.8% base agar. Cells were grown in 0.4% agar together with DMEM medium supplemented with fetal bovine serum and an antibiotic-antimycotic solution at 37° C. in an atmosphere of 95% air and 5% CO2. […] Compounds were added to the media from 1 mM DMSO stock solutions, and a corresponding dilution of DMSO was used as control. Cells were grown for 14 days. Plates were photographed, and the number of colonies was measured by Artek 880 Automated Colony Counter (Artek Systems Corporation, Farmingdale, N.Y.).

[8] = test system: metastasis of melanoma to the lungs; assay: Melanoma lung metastasis model in mice; format: in vivo; conditions: i.p. injection 5 days per week for 2 weeks (FIG. 28)
Description: Panel A: Representative photos of lungs with melanoma nodules (black dots, n=8 per group). Treatment was i.p. injection 5 days per week for 2 weeks. Panel B: Number of melanoma nodules on each lung. […] Panel C: Mouse body weight changes during the experiment. Points: means; bars: SD. Control: vehicle solution only.

[9] = test system: A375RF21; assay: Annexin V/propidium iodide apoptosis detection in A375RF21 cells; format: cell-based, human; conditions: 48 hours incubation
[10] = Brain penetration (brain and plasma concentrations) in nude mice; conditions: docetaxel IP 10 mpk, 17ya PO 20 mpk, 55 PO 20 mpk
[11] = test system: PC-3/TxR tumors; conditions: for Tumor size (mm^2) End / Tumor size (mm^2) Start: PC-3/TxR xenograft; for Tumor size (mm^2) End: day 1 and 9, end point day 19; for Tumor size (mm^2) Start: day 1 and 9, start
[12] = test system: A375RF21; assay: In vitro combination assay (combination index) on A375RF21; format: cell-based, human; conditions: Treatment + Vemurafenib
Description: as §2

[13] = Aqueous solubility (Multiscreen Solubility Filter Plate, LC-MS/MS); format: physicochemical
Description: The solubility of drugs was determined by Multiscreen Solubility Filter Plate (Millipore Corporate, Billerica, Mass.) coupled with LC-MS/MS.

[14] = Pharmacokinetic study in Sprague-Dawley rats; conditions: rat
[15] = Pharmacokinetic study in ICR mice; conditions: mouse; for MousePK_IV10mgk_Cl / MousePK_IV10mgk_V: IV 10 mg/kg
Description: All compounds (10 mg/kg) were dissolved in DMSO/PEG300 (1/9) and administered by a single intravenously (i.v.) injection (50 μL) into the tail vein.

[16] = test system: A375 human melanoma xenograft; assay: A375 human melanoma xenograft in SHO nude mice; format: in vivo; conditions: 60 mg/kg; after 31 days of treatment
Description: FIG. 19 depicts in vivo study of ABI compounds. […] C57BL/6 mice bearing B16-F1 melanoma allograft (n=5 per group). Each mouse received 0.5×10^6 cells by s.c. injection into the flank. 30 μL i.p. daily treatments were started when tumor size reached ˜100 mm^3. […] SHO nude mice bearing an A375 human melanoma xenograft (n=5 per group). Each mouse received 2.5×10^6 cells by s.c. injection into the flank. 30 μL i.p. daily treatments were started when the tumor size reached ˜150 mm^3. Control, vehicle solution only; points, means; bars, SD. DTIC, (5-(3,3,-dimethyl-1-triazenyl)-imidazole-4-carboxamide, dacarbazine.
Average body weight of all groups increased slightly throughout the experiment period.

[17] = test system: B16-F1 melanoma; assay: B16-F1 melanoma tumors in C57/BL mice; format: in vivo; conditions: 60 mg/kg; after 13 days of treatment; C57BL/6 mice
Description: C57BL/6 mice bearing B16-F1 melanoma allograft (n=5 per group). Each mouse received 0.5×10^6 cells by s.c. injection into the flank. 30 μL i.p. daily treatments were started when tumor size reached ˜100 mm^3. […] Control, vehicle solution only; points, means; bars, SD. DTIC, (5-(3,3,-dimethyl-1-triazenyl)-imidazole-4-carboxamide, dacarbazine.
Female C57/BL mice, age 4-6 weeks, were purchased from Harlan Laboratories (Harlan Laboratories Inc., Indianapolis, Ind.). The animal housing met the Association for Assessment and Accreditation and Laboratory Animal Care specifications. All of the procedures were conducted in accordance with guidelines of our Institutional Animal Care and Use Committee.
The cell suspension (100 μL) was injected subcutaneously in the right dorsal flank of each mouse. When tumor size reached about 100-150 mm^3, about 7 days after cell inoculation, all mice bearing tumors were divided into control and treatment groups based on tumor size (n=5 per group). Each group had similar average tumor size. Mice in control groups (negative control) were injected intraperitoneally with 50 μL vehicle solution only or DTIC at 60 mg/kg (positive control) once daily. Tumor volume was measured every 2 days with a traceable electronic digital caliper (Fisher Scientific, Inc., Pittsburgh, Pa.) and calculated using the formula a×b^2×0.5, where a and b represented the larger and smaller diameters, respectively. Tumor volume was expressed in cubic millimeters. Data were expressed as mean±SE for each group and plotted as a function of time. […] Animal activity and average body weight of each group were monitored during the entire experiment period to assess compound toxicity. At the end of treatment, all mice were euthanized by CO2 followed by cervical dislocation, and tumors were harvested for further studies.

[18] = in vitro; conditions: human, liver microsomes, pH 7.4
[19] = test system: HL60 tumors; assay: HL60 leukemia xenograft in nude mice; format: in vivo; conditions: vincristine 1 mg/kg intraperitoneal injection once a week
Description: The dosing schedule was once a week for two weeks. Vincristine (1 mg/mL) was administrated via intraperitoneal injection once a week.

[20] = test system: A375RF21; assay: Cell cycle analysis (flow cytometry) in A375RF21 cells; format: cell-based, human; conditions: resistant A375RF21 cell line
Description: (§1) Flow cytometry analysis was performed as described before (Wang Z, Chen J, Wang J, et al. “Novel tubulin polymerization inhibitors overcome multidrug resistance and reduce melanoma lung metastasis.” Pharm. Res. (2012) 29: 3040-3052). To determine cell cycle distributions in the G2 and M phases (FIG. 23), cells were harvested with trypsin, stained using antiphospho-histone H3-AlexaFluor® 488 antibody on ice for one hour in the dark, followed by stained using PI/RNase solution for 30 minutes at room temperature in the dark per the manufacturer's instructions (#FCCH025103, EMD Millipore Corporation, Ballerica, Mass.). Data were further processed and graphs were prepared using the Modfit 2.0 program (Verity Software House, Topsham, Me.).

[21] = test system: A375RF21 xenograft; assay: A375RF21 tumor xenograft in nude mice; format: in vivo
Description: Seven to eight week old male nude mice were purchased from Charles River Laboratories International, Inc. (Wilmington, Mass.). A375RF21 cells were suspended in ice-cold phenol red-free and FBS-free DMEM medium without FBS and mixed with high concentration Matrigel (BD Biosciences, San Joes, Calif.) at ratio of 1:1 right before use. 100 μL of this mixture containing 3×10^6 cells were injected subcutaneously (s.c.) to the left-side dorsal flank of each mouse. One week after the inoculation, the mice were randomized into four groups (n=7 for the initial low dose and n=5 for subsequent high dose drug combination) and the treatments started. […] Vehicle control group was i.p. injected with same volume (100 μL) of PEG300 at the same dosing frequency. At the end of the experiments, mice were euthanized and tumor tissue were isolated, weighted and then fixed in 10% buffered formalin phosphate solution.
Tumor volume and body weight of each mouse were evaluated three times a week.

[22] = test system: A375; assay: Cell cycle analysis (flow cytometry) in parental A375 cells; format: cell-based, human
Description: as §1

[23] = vemurafenib 30 mg/kg, 12da 15 mg/kg, n=5

NC1(c2ccc(-c3nc4ccn5c(=O)[nH]nc5c4cc3-c3ccccc3)cc2)CCC1 [MK2206]
CI value EC75 [1]: 0.67

COc1ccc(C(=O)c2nc(-c3cc(OC)c(OC)c(OC)c3)c[nH]2)cc1 [70y]
IC50 [2]: 5680 nM
IC50 [3]: 10400 nM
IC50 [4]: 708 nM

O=C(c1ccc(F)cc1)c1c[nH]c(-c2ccc(OCc3ccccc3)cc2)n1 [12jb, (2-(4-(benzyloxy)phenyl)-1H-imidazol-4-yl)(4-fluorophenyl)methanone]
increase in activity compared with the para-hydroxy compound 12kb [5]: 440 fold

O=C(c1ccc(Br)cc1)c1nc(-c2ccc(Br)cc2)c[nH]1 [70t]
IC50 [2]: 13200 nM
IC50 [3]: 18900 nM
IC50 [4]: 16900 nM
IC50 [6]: 25500 nM

COc1ccc(-c2nc(C(=O)c3ccc(F)cc3)c[nH]2)cc1 [12cb, (4-fluorophenyl)(2-(4-methoxyphenyl)-1H-imidazol-4-yl)methanone]
concentration showing effective inhibition of B16-F1 colony formation [7]: 20 nM
metastasis of melanoma to the lungs [8]: inhibition

CC(=O)O[C@@]12CO[C@@H]1C[C@H](O)[C@@]1(C)C(=O)[C@H](O)C3=C(C)[C@@H](OC(=O)[C@H](O)[C@@H](NC(=O)OC(C)(C)C)c4ccccc4)C[C@@](O)([C@@H](OC(=O)c4ccccc4)[C@H]21)C3(C)C [Docetaxel]
counted cell apoptosis or death (percentage sum of Q1, Q2 and Q4) [9]: 6.4±3.0%
Brain (ng/mL), 4 hr [10]: 20 ± 9 ng/mL
Plasma (ng/mL), 1 hr [10]: 768 ± 92 ng/mL
Plasma (ng/mL), 4 hr [10]: 345 ± 94 ng/mL
Brain (ng/mL), 1 hr ([10]; mean ± SD, 3 nude mice): 33 ± 14 ng/mL
Tumor size (mm^2) End ([11]; IV 10mpk): 1774 ± 183 mm^2
Tumor size (mm^2) Start ([11]; IV 10mpk): 143 ± 20 mm^2
Tumor size (mm^2) End ([11]; IV 20mpk): 999 ± 905 mm^2
Tumor size (mm^2) Start ([11]; IV 20mpk): 170 ± 80 mm^2
TGI (%) ([11]; mouse, in vivo, iv, 10 mg/kg): 14%
CI ED75 [12]: 0.80
CI ED90 [12]: 0.90

COc1cc(C(=O)c2c[nH]c(-c3ccc(Cl)cc3)n2)cc(OC)c1OC [drawing 51]
Solubility ([13]; aqueous): 12 µg/mL (≈ 32.2 µM)
RatPK_IV5mgk_Cl ([14]; IV 5 mg/kg): 16 mL/min/kg
RatPK_IV5mgk_V ([14]; IV 5 mg/kg): 1.9 L/kg
RatPK_PO10mgk_AUC ([14]; PO 10 mg/kg): 218 µg·min/mL
RatPK_PO10mgk_Cmax ([14]; PO 10 mg/kg): 1109 ng/mL
MousePK_IV10mgk_Cl [15]: 61 mL/min/kg
MousePK_IV10mgk_V [15]: 4 L/kg
MousePK_PO20mgk_AUC ([15]; PO 20 mg/kg): 201 µg·min/mL
MousePK_PO20mgk_Cmax ([15]; PO 20 mg/kg): 2592 ng/mL

CN(C)/N=N/c1[nH]cnc1C(N)=O [DTIC, reference compound]
melanoma tumor growth inhibition (TGI value) [16]: 52%
melanoma tumor growth inhibition (TGI value) [17]: 51%

COc1cc(C(=O)c2c[nH]c(-c3ccc(Cl)cc3)n2)cc(OC)c1OC [12fa, (2-(4-chlorophenyl)-1H-imidazol-4-yl)(3,4,5-trimethoxyphenyl)methanone]
half-life at 0.5 μM [18]: 44 min
solubility at […] ([13]; phosphate buffered saline, aqueous buffer, kinetic from dmso stock, PBS pH 7.4): 12 µg/mL (≈ 32.2 µM)

CC[C@]1(O)C[C@H]2CN(CCc3c([nH]c4ccccc34)[C@@](C(=O)OC)(c3cc4c(cc3OC)N(C=O)[C@H]3[C@@](O)(C(=O)OC)[C@H](OC(C)=O)[C@]5(CC)C=CCN6CC[C@]43[C@@H]65)C2)C1 [Vincristine]
tumor growth inhibition (TGI) [19]: 84%

CC(=O)Nc1cccc(-n2c(=O)n(C3CC3)c(=O)c3c(Nc4ccc(I)cc4F)n(C)c(=O)c(C)c32)c1 [Trametinib]
CI ED75 [12]: 0.90
CI ED90 [12]: 0.90

COc1cc(C(=O)c2csc(-c3ccccc3)n2)cc(OC)c1OC [drawing 53]
half-life at 0.5 μM [18]: 17 min
RatPK_IV5mgk_V ([14]; IV, 2.5mpk): 4.9 (2.5mpk) L/kg
RatPK_PO10mgk_AUC ([14]; PO 10 mg/kg): 37 µg·min/mL
RatPK_Bioavailability ([14]; oral): 3.3 % F
MousePK_IV10mgk_Cl [15]: 130 mL/min/kg
MousePK_IV10mgk_V [15]: 4.9 L/kg

COc1cccc2c1C(=O)c1c(O)c3c(c(O)c1C2=O)C[C@@](O)(C(=O)CO)C[C@@H]3O[C@H]1C[C@H](N)[C@H](O)[C@H](C)O1 [Doxorubicin]
CI value EC75 [1]: 11.6

CCN(CC)CCNC(=O)c1c(C)[nH]c(/C=C2\C(=O)Nc3ccc(F)cc32)c1C [Sunitinib]
CI ED75 [12]: 0.91
CI ED90 [12]: 0.93

CCCS(=O)(=O)Nc1ccc(F)c(C(=O)c2c[nH]c3ncc(-c4ccc(Cl)cc4)cc23)c1F [Vemurafenib, reference compound]
counted cell apoptosis or death (percentage sum of Q1, Q2 and Q4) [9]: 11.9±3.5%
concentration of vemurafenib to produce G0/G1 cell cycle arrest [20]: ≥ 30 µM
TGI (%) ([21]; 12da 10 mg/kg, vemurafenib 20 mg/kg, i.p. once per day 5 days per week, after 3 weeks of treatment, n=7): 22.65 ± 8.31%
TGI (%) ([21]; 12da 10 mg/kg, vemurafenib 20 mg/kg, i.p. once per day 5 days per week, after 3 weeks of treatment, n=7, listed as vemurafenib): 22.65%
Tumor weight (gram) ([21]; 12da 10 mg/kg, vemurafenib 20 mg/kg, after 3 weeks of treatment, n=7): 2.05 ± 0.14 gram
TGI (%) [21, 23]: 28.10 ± 4.81%
Tumor weight (gram) [21, 23]: 1.05 ± 0.21 gram
TGI (%) ([21]; vemurafenib 30 mg/kg, 12da 15 mg/kg, n=5, listed as vemurafenib): 28.10%
concentration of vemurafenib to produce G0/G1 cell cycle arrest [22]: less than 1 μM

CC[C@]1(O)C[C@@H]2CN(CCc3c([nH]c4ccccc34)[C@@](C(=O)OC)(c3cc4c(cc3OC)N(C)[C@H]3[C@@](O)(C(=O)OC)[C@H](OC(C)=O)[C@]5(CC)C=CCN6CC[C@]43[C@@H]65)C2)C1 [Vinblastine]
CI value EC75 [1]: 0.78

COc1cc(C(=O)c2csc(-c3ccccc3)n2)cc(OC)c1OC [1 h, reference compound]
Aqueous solubility ([13]; PBS pH 7.4): (1.1) μg/mL
oral bioavailability [14]: 3.3%
